In patent US8097656B2, “Nitrogenated trans-stilbene analogs, method for the obtention and medical applications thereof” (Dominion Pharmakine S.L, priority 2005, dated 2012):
“Also recorded” adds a separate entry of the source.

What was measured:
MB16 cells [1] = assay: MB16 cell adhesion to immobilized VCAM-1 substrates (H2O2-treated); type: cell-based, murine; conditions: 2.5 μM preincubation; 10 μM H2O2
Method: MB16 and MA375 cell adhesion to immobilized VCAM-1 substrates. The MB16 and MA375 cell adhesion tests were conducted on immobilized VCAM-1 substrates (2 μg/ml of recombinant human VCAM-1, R&D Systems, Minneapolis, Minn.) on 96-well plates. To avoid non-specific attachment to the plastic, 0.5% BSA dissolved in PBS was added to the wells for 2 hours at ambient temperature prior to conducting the adhesion test. The melanoma cells were preincubated with 2.5 μM of the compounds to be tested (azaresveratrol, see Table 2; JE1:2, JE2:1 and JE2:2 see FIG. 2; JEM2:2-01 and JEM2:1-02 see FIG. 7; YEF02, YEF03, YEF07, YEF05B, YEF07B and YEF05H. see FIG. 9) for 30 minutes, to which 10 μM of hydrogen peroxide or 10 ng/ml of IL-18 were added, respectively for a further 24 hours. Afterward, the cells were washed and marked with the BCECF-AM fluorescent probe (carboxyfluorescein, 2′,7′-bis-(2-carboxy-ethyl)-5-(6)carboxyfluorescein aminoxymethyl ester). Thirty minutes later, a washing process was performed to remove the excess fluorochromium, the number of viable cells being calculated by means of the trypan blue exclusion test and (5×10^4 cells/well) being added to the 96-well plate. The co-culture plates were incubator-incubated at 37° C. for 1 hours. The percentage of cellular adhesion was calculated by measuring the fluorescence emitted by the adhered cells (obtained after washing the plate) with regard to the fluorescence emitted by the total number of cells added. The results in the figures are given in values related to the adhesion percentages of the untreated melanoma cells.

HSE cells [2] = assay: Hydrogen peroxide production from primary cultured HSE cells (DCFH-DA probe); type: cell-based, mouse; conditions: 2.5 μM
Description: (§1) Isolation of primary murine cultures of hepatic sinusoidal endothelial (HSE) cells. The hepatic sinusoidal cells were isolated from C57BL/6J mice (males, aged 6-8 weeks) supplied by IFFA Credo (L'Arbreole, France), followed by a purification and identification of the HSE cells following the protocol described by Vidal-Vanaclocha et al. (1993) [Vidal-Vanaclocha, F., Rocha, M., Asumendi, A. & Barbera-Guillem, E. Isolation and enrichment of two sublobular compartment-specific endothelial cell subpopulations from liver sinusoids. Hepatology, 1993, 18, 328-339]. Stable primary cultures of HSE cells were obtained after seeding the cells on a type I collagen substrate (Sigma Chemicals Co, St Louis, Mo.), and the cultures were maintained in DMEM-HCO^3−, penicillin (100 U/ml), streptomycin (100 μg/ml), supplemented with 10% fetal bovine serum at 37° C. with 5% CO2 in atmosphere at 98% humidity.
(§2) Determination of hydrogen peroxide production from HSE and MB16 cells. Primary cultures of HSE cells were treated with 10 μg/ml of the DCFH-DA fluorescent probe for 30 minutes at 37° C. and were washed to eliminate the excess fluorochromium. Afterward, fresh culture medium was added thereto in the presence or absence of 2.5 μM of the compounds JE1:2, JE2:1 or JE2:2 and the production of H202 over the course of time was determined (see FIG. 5). The hydrogen peroxide produced by the cells oxidizes the probe, converting it into a fluorescent molecule. Thus, the cell fluorescence produced by the accumulation of DCF made it possible to detect the intracellular production of hydrogen peroxide. In each cell well, it was possible to determine the relative fluorescence value (arbitrary units of fluorescence brightness) in relation to the quantity of hydrogen peroxide produced at different incubation times. In the experiments with MB16 cells, once the cells had been marked with the DCFH-DA probe, they were incubated for 300 minutes with 2.5 μM of the azaresveratrol or JE2:2 compounds, 10 ng/ml of IL-18 (FIG. 4) then having been added.

MB16 cells [3] = assay: In vitro proliferation of MB16 cells treated with recombinant IL-18; type: cell-based, murine; conditions: 2.5 μM pretreatment; 10 ng/ml IL-18; 48 h
Method: In vitro Melanoma cell proliferation test. The MB16 or MA375 cells are seeded (2500 cells/well/200 μl) in DMEM medium (Dulbecco's modified Eagle's medium) with 10% fetal bovine serum (FBS). Once adhered, they were washed to remove the FBS and fresh medium was added in the presence or absence of 2.5 μM of the compounds to be tested. In the experiments with MA375, the compound azaresveratrol (see Table 4) was used, and in the experiments with MB16 cells, the compounds azaresveratrol, JE1:2, JE2:1 or JE2:2 (see FIG. 3) were used. Thirty (30) minutes later, 10 ng/ml of IL-18 or HSC-conditioned media (murines in the case of B16 and human ones in the case of A375) were added to some wells, and the plates were incubated for 48 hours at 37° C. with 5% CO2 Upon completion of the incubation period, the cells were fixed with […] for 1 hours, were washed and were allowed to dry in the incubator at 50° C. for 30 minutes. In following, 100 μl/well of sulforhodamine 101 (0.4% p/v) was added and they were incubated at room temperature in the dark for 30 minutes. After washing, 200 μl/well of Tris base 10 mM pH 10.5 was added and the fluorescence was measured by means of a 530 nm, 620 nm emission excitation filter plate fluorescence reader. The number of cells was calculated by extrapolating said fluorescence data on a standard straight line previously obtained based on the fluorescence emitted in an increasing number of cells.

MB16 cells [4] = assay: Hydrogen peroxide production from MB16 cells (DCFH-DA probe); type: cell-based, murine
Method: as §2

PGE2 = assay: EIA of PGE2 in supernatant of VEGF-treated HSE cells (evidence of cyclooxygenase-2 activity); type: cell-based, mouse; conditions: 1, 2.5 and 10 μM; 10 ng/ml VEGF for 4 hours
Method: PGE2 determination in HSE cell supernatants (see FIG. 11). Primary cultured HSE cells were incubated in the presence or absence of increasing concentrations (1, 2.5 and 10 μM) of the compounds JE2:2, YEF07 and YEF05B for 30 minutes. In following, 10 ng/ml of recombinant murine VEGF or the same volume of saline solution was added, 4 hours after which supernatants were collected and the PGE2 concentration determined by enzymatic immunoassay (EIA) supplied by Amersham Biosciences (Uppsala, Sweden).

[5] = Water solubility (statement); type: physicochemical
MB16 cells [6] = assay: MB16 hepatic metastasis test after intrasplenic injection; type: in vivo, C57BL/6J mice; conditions: JE2:2 intraperitoneal 2.5 mg/kg, 1 hour prior and days 2, 3, 4, 8, 9, 10, 11; day 12; vs PBS; P<0.01
HSE cells [7] = assay: MB16 cell adhesion to HSE cells treated with MC-MB16; type: cell-based, mouse; conditions: 2.5 μM prior to MC-MB16
Description: as §1
MB16 cell adhesion to the monolayer of HSE cells in culture. The endothelial cells were isolated 24 hours prior to the adhesion test and were seeded on 24-well plate, maintaining them a minimum of 4 hours in serum-free medium before incubating them with DMEM in the presence or not of MC-MB16 for 8 hours. The synthesized compounds (JE2:2 see FIG. 6; JEM2:2-01 and JEM2:1-02 see FIG. 8A; YEF02, YEF03, YEF07, YEF05B, YEF07B and YEF05H see FIG. 10) were added to a 2.5 μM concentration prior to the MC-MB16. On the other hand, the MB16 cells were marked with 40 μg/ml from the fluorescent probe BCECF-AM (carboxyfluorescein, 2′,7′-bis-(2-carboxy-ethyl)-5-(6)carboxyfluorescein aminoxymethyl ester) supplied by Molecular Probes Inc. (Oregon, USA). Afterward, a washing process was performed with DMEM-HCO3−—to remove the excess fluorochromium, the number of viable cells being calculated by means of the trypan blue exclusion test and resuspended to a concentration of 2×10^5 cells/ml. Lastly, 1 ml of the MB16 cell suspension was added to each well on the primary HSE cell culture plate. The co-culture plates were incubator-incubated at 37° C. for 8 minutes. The percentage of cellular adhesion was calculated by means of the a fluorescence measurement system described by Vidal-Vanaclocha et al. (1994) [Vidal-Vanaclocha, F., Amézaga, C., Asumendi, A., Kaplanski, G. & Dinarello, C. A. Interleukin-1 receptor blockade reduces the number and size of murine B16 melanoma hepatic metastases. Cancer Research, 1994, 54, 2667-2672]. In the experiments with IL-18, the MB16 cells were incubated with 10 ng/ml of IL-18 for 4 hours prior to being marked with BCECF-AM and were adhered to the HSE cell plate. The results in the figures are given as values related to the adhesion percentages of the untreated HSE cells.

TNF-alpha = assay: ELISA of TNF-alpha in supernatant of MC-MB16-treated HSE cells; type: cell-based, mouse; conditions: 2.5 μM for 30 minutes before MC-MB16; 8 hours
Method: ELISA determination of the TNF-alpha concentration in the supernatant from MC-MB16-treated HSE cells. Primary cultured HSE cells were incubated in the presence or absence of 2.5 μM of the synthesized compounds (JEM2:2-01 and JEM2:1-02 see FIG. 8B) for 30 minutes, after which MB16-conditioned media were added. Eight (8) hours later, the supernatant from cultured endothelial cells were collected, filtered through 0.22 μm membranes and the concentration of TNF-alpha was then assayed using the ELISA test (R&D Systems).

| Structure (SMILES) | Increase in H2O2-treated MB16 cell adhesion to immobilized VCAM-1 (in words) (MB16 cells [1]) | Endothelial (HSE) production of H2O2 (in words) (HSE cells [2]) | Increase in the number of MB16 cells by IL-18 (proliferation, in words) (MB16 cells [3]) | Increase in endothelial secretion of PGE2 after VEGF (in words) (PGE2) | Increase in adhesion of MB16 cells to HSE activated by MC-MB16 / proadhesive response of HSE (in words) (HSE cells [7]) | also measured |
| --- | --- | --- | --- | --- | --- | --- |
| COC(=O)c1[nH]c(-c2ccc(O)cc2)cc1-c1cc(O)cc(O)c1 [JE1:2, 3-(3,5-Dihydroxyphenyl)-5-(4-hydroxyphenyl)-1H-pyrrole-2-methyl carboxylate] | significantly (P<0.01) inhibits | inhibitory effect | reduced said increase |  |  |  |
| COC(=O)c1[nH]c(-c2cc(O)cc(O)c2)cc1-c1ccc(O)cc1 [JE2:1, 5-(3,5-Dihydroxyphenyl)-3-(4-hydroxyphenyl)-1H-pyrrole-2-methyl carboxylate] | significantly (P<0.01) inhibits | inhibitory effect | reduced said increase |  |  |  |
| COC(=O)c1[nH]c(-c2cc(O)cc(O)c2)cc1-c1cc(O)cc(O)c1 [JE2:2, 3,5-bis(3,5-Dihydroxyphenyl)-1H-pyrrole-2-methyl carboxylate] | significantly (P<0.01) inhibits; also recorded: greatest inhibitory effect | inhibited | reduced said increase; also recorded: most highly effective | significantly inhibited; also recorded: dose-response | significantly (P<0.01) reduced | Increase of H2O2 production of MB16 cells in response to IL-18 (in words) (MB16 cells [4]; 2.5 μM prior to IL-18): completely abrogated; H2O2 production of MB16 cells in basal conditions (in words) (MB16 cells [4]; 2.5 μM, no IL-18): inhibited; Water solubility (in words) [5]: highly water-soluble; Reduction of the mean density of hepatic metastasis (MB16 cells [6]): 87%; Reduction of the volume occupied by metastatic tissue (MB16 cells [6]): 90% |
| COC(=O)c1[nH]c(-c2cc(OC)cc(OC)c2)cc1-c1cc(OC)cc(OC)c1 [JEM2:2-01, 3,5-bis(3,5-Dimethoxyphenyl)-1H-pyrrole-2-methyl carboxylate] | completely abrogated |  |  |  | significantly (P<0.01) reduced; also recorded: greater inhibition | Endothelial production of TNF-alpha induced by MC-MB16 (in words) (TNF-alpha): inhibits |
| COc1cc(OC)cc(-c2cc3c(OC)cc(OC)cc3n2C(=O)OC(C)(C)C)c1 [YEF05B, 4,6-Dimethoxy-2-(3,5-dimethoxyphenyl)-1H-indole-1-tert-butyl carboxylate] | significantly (P<0.01) inhibited |  |  | significantly inhibited | significantly (P<0.01) reduced |  |
| Oc1ccc(O)c(-c2cc3c(O)cc(O)cc3[nH]2)c1 [YEF05H, 2-(2,5-Dihydroxyphenyl)-1H-indole-4,6-diol] | significantly (P<0.01) inhibited |  |  |  | significantly (P<0.01) reduced |  |
| COc1cc(OC)cc(-c2cc3c(OC)cc(OC)cc3[nH]2)c1 [YEF07, 4,6-Dimethoxy-2-(3,5-dimethoxyphenyl)-1H-indole] | significantly (P<0.01) inhibited |  |  | significantly inhibited | significantly (P<0.01) reduced |  |
| COc1ccc(OC)c(-c2cc3c(OC)cc(OC)cc3n2C(=O)OC(C)(C)C)c1 [YEF07B, 4,6-Dimethoxy-2-(2,5-dimethoxyphenyl)-1H-indole-1-tert-butyl carboxylate] | significantly (P<0.01) inhibited |  |  |  | significantly (P<0.01) reduced |  |
